Measured values published in US20090111895A1, “ENHANCED DIALDEHYDE DISINFECTANT AND STERILIZATION FORMULATIONS” (Ethicon, Inc., priority 2007, published 2009).

Legend:
Bacillus subtilis spores = assay: Time kill assay; type: cell-based; settings: Table 6; 0.3% ortho-phthalaldehyde, 20° C.
Procedure: Test solutions were prepared by mixing acetate with ortho-phthalaldehyde (if applicable) and the solutions were adjusted to pH 7.2. The solutions were then challenged with 10^6 per ml of Bacillus subtilis spores at 20° C. (room temperature). At each predetermined exposure time, samples from each of the test solutions were tested/assayed for survivors.

[1] = test system: Bacillus subtilis (ATCC 19659) spores; assay: Bacillus subtilis sporicidal suspension test; type: cell-based; settings: 20° C.; for sporicidal activity (in words): Table 1 results; for sporicidal activity (in words) / enhancement of the sporicidal activity of ortho-phthalaldehyde (in words): 5 hours; for enhancement of the sporicidal activity of ortho-phthalaldehyde (in words): Tables 2-4, 0.3 wt. % ortho-phthalaldehyde
Procedure: The phrase “Bacillus subtilis sporicidal suspension test”, when used in the appended claims means a determination of the sporicidal activity of a dialdehyde calculated as a log reduction of Bacillus subtilis bacterial spores. The test is performed according to Example 1 by treatment of Bacillus subtilis bacterial spores with a formulation consisting of the dialdehyde to be tested in water. The log10 reduction/mL is calculated from log N0−log Ni where N0 represent the number of organisms (cfu/mL) at time zero; and Ni represent the number of surviving organism (cfu/mL) at designated exposure time.
Several ortho-phthalaldehyde based germicidal solutions were tested to determine their effectiveness in killing Bacillus subtilis (ATCC 19659) spores using the Bacillus subtilis sporicidal suspension test.
For preparation of the inoculating spore test suspension, a 1 ml aliquot of the spore harvest was serial diluted with sterile water to produce a spore suspension of approximately 1×10^7 cfu ml.
Test solutions of ortho-phthalaldehyde/acetate were prepared by mixing acetate with CIDEX® OPA (which is a 0.55% solution of ortho-phthalaldehyde in water around pH 7.3, commercially available from Advanced Sterilization Products, a Johnson & Johnson Company) and diluted to levels indicated in Table 1.
The 1 ml aliquots of spore suspensions were exposed to 9 ml of ortho-phthalaldehyde solution at 20° C. The pHs of the tested solutions were adjusted to 7.3-7.5.
The experiments were performed using the suspension test, which involved adding 1 ml of 10^7 spores to sterile test tubes containing 9 ml of the challenge solution. The resulting test sample spore concentration was 10^6 cfu /ml. The tubes containing the test suspension/spores were vortex briefly to allow for mixing of the solution/spores. At the end of each of the appropriate exposure time at 20° C., 1 ml aliquots of the solution/spores mixture were aseptically transferred to sterile filtration units containing 0.45μ membrane filters with 100 ml of neutralizer solution (1% w/v glycine solution). The solutions were filtered and the membrane filters were rinsed again with 100 ml of neutralizers solution. The membrane filters were then individually transferred onto the surface of commercially available sterile Tryptic Soy Agar plates. The plates were incubated at 37° C. for 48 hours. After incubation, the number of survivors were determined for each test sample/exposure time.
The log10 reduction/mL is calculated from log N0−log Ni where N0 represent the number of organism (cfu/mL) at time zero; and Ni represent the number of surviving organism (cfu/mL) at designated exposure time.
In addition to acetate, several mixtures of ortho-phthalaldehyde with different carboxylates such as chloroacetate and propionate were also tested using the protocol described above in Example 1.
Benzoate was evaluated for its ability to enhance the sporicidal activity of ortho-phthalaldehyde using the protocol described above in Example 1. The pHs of all solutions were adjusted to neutral, 7.3-7.5.
Spore suspension tests with five germicide solutions containing 2.4% glutaraldehyde with various amounts of acetate ranging from 0 to 7% were conducted at 20° C. for 4 hours with Bacillus using the protocol described above in Example 1. The pHs of the solutions were adjusted to 8.2-8.9, which is the typical pH range for glutaraldehyde disinfecting solutions.

spores of B. subtilis = settings: cited from earlier work

SMILES | sporicidal activity (in words) [1] | enhancement of the sporicidal activity of ortho-phthalaldehyde (in words) [1] | other results
CC(=O)[O-].[K+] [acetate, potassium acetate] | does not have significant sporicidal activity |  | enhancement of the sporicidal activity of ortho-phthalaldehyde (in words) (Bacillus subtilis spores): the sporicidal activity of ortho-phthalaldehyde is significantly enhanced; enhancement of the sporicidal activity of glutaraldehyde (in words) ([1]; Table 5, 2.4% glutaraldehyde, 4 hours): the sporicidal activity of glutaraldehyde is significantly enhanced
O=C(O)c1ccccc1 [benzoate] |  | enhances ortho-phthalaldehyde sporicidal efficacy when the benzoate concentration is above about 3% | 
O=C(O)CCl [chloroacetate] |  | significantly enhance the sporicidal activity of ortho-phthalaldehyde | 
O=Cc1ccccc1C=O [ortho-phthalaldehyde, reference compound] | does not have significant sporicidal activity |  | activity against spores of B. subtilis (in words) (spores of B. subtilis): relatively ineffective against spores of B. subtilis
CCC(=O)O [propionate] |  | significantly enhance the sporicidal activity of ortho-phthalaldehyde | 
